Measured values from patent US20030040105A1, “Microfluidic micromixer” (priority 1999, published 2003).

Molecular target: T1, streptavidin coated bead bearing fluorescein biotin (Streptomyces avidinii, UniProt P22629)
T1 construct: purchased Spherotech Inc., Libertyville, Ill
Assay: unquenching of fluorescein biotin streptavidin beads by native biotin, flow cytometry
Assay type: binding
Details: streptavidin beads with quenched fluorescein biotin, typical
Experimental: Data are plotted as mean channel fluorescence (MCF) versus time for several concentrations of biotin. The binding of fluorescein biotin to streptavidin-coated beads shown in FIG. 12A is characterized by the quenching of fluorescence of particles bound relative to free fluorescein biotin. The quenching is relieved when free biotin is added. The base line fluorescence indicated by the constant signal on the right signifies the “ostrich quenched” fluorescein biotin beads. Typically, this type of quenching, “ostrich quenching,” occurs when the fluorescein moiety associates with the streptavidin-binding pocket adjacent to the biotin-moiety bearing site FIG. 12A. […] The subsequent increase in fluorescence signal on right is caused by homogeneously mixing native biotin with the microspheres causing the unquenching of FITC-biotin in the streptavidin receptor pocket on the bead surface.
A 200 μL volume suspension of streptavidin coated beads (3.7×10^7 beads/mL) was diluted to 4 mL in TRIS buffer, (100 mM Tris HCl, 150 mM NaCl, 0.1% BSA, 0.02% sodium azide, pH 7.5). Subsequently, 1.0 μL of 8.7×10^−6 M fluorescein biotin solution was added to the beads. The sample was continuously agitated for 20 minutes, then centrifuged and resuspended in 6.0 mL of buffer. The final bead suspension comprised of ˜1.1 million beads/mL with a million fluorescein biotin molecules per bead. […]

T1 sequence (P22629 25-183): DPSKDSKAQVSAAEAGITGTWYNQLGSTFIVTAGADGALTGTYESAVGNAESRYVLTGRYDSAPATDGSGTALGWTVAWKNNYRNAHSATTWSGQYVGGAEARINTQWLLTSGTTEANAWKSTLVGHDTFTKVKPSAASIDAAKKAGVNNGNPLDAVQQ

O=C(O)CCCC[C@@H]1SC[C@@H]2NC(=O)N[C@@H]21 [native biotin, Biotin]
increase in fluorescence intensity after mixing with excess native biotin: eight-fold increase
